US9765075B2, “Substituted bridged urea analogs as sirtuin modulators” (GLAXOSMITHKLINE LLC, priority 2013, dated 2017)
Changes are numbered by the printed parent chain. Counter-ions that a name gives are not always drawn.

Legend:
Assay in all cases: SIRT1 inhibition assay, OAcADPr mass spectrometry
Assay type in all cases: biochemical
full-length hSIRT1 I223A = target: T1, full-length hSIRT1 I223A (Homo sapiens, UniProt Q96EB6, I223A)
T1 construct: The following point mutants of full-length hSIRT1 were generated; His6 (C); made in house
T1 sequence (Q96EB6 1-747 I223A): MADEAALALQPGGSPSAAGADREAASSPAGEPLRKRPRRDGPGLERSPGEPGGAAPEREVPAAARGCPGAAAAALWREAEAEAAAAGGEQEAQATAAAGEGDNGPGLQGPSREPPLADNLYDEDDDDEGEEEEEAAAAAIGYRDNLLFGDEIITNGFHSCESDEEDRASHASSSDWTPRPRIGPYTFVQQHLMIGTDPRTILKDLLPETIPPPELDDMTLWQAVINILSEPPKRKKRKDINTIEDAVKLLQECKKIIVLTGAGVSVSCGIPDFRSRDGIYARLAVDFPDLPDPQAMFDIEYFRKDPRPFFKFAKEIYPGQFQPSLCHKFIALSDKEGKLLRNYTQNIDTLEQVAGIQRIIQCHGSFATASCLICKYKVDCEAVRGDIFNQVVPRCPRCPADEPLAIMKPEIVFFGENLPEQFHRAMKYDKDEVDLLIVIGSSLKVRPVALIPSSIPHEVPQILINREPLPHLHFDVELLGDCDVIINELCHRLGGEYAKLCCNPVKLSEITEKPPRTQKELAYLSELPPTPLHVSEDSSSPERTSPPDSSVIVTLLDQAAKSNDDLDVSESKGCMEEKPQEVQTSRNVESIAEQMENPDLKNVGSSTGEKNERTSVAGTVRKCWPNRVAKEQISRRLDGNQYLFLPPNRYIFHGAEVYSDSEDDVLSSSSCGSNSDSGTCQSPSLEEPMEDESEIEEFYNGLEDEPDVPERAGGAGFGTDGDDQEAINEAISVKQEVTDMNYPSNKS
Method: (§1) SIRT1 activation and inhibition assays were run in reaction buffer with 0.05% BSA at 25° C. and analyzed using the OAcADPr assay. Enzyme and compound were pre-incubated for 20 minutes before addition of substrates.

full-length hSIRT1 E230K = target: T2, full-length hSIRT1 E230K (Homo sapiens, UniProt Q96EB6, E230K)
T2 construct: His6 (C); made in house
T2 sequence (Q96EB6 1-747 E230K): T1 sequence (Q96EB6 1-747 I223A) with A223I, E230K
Method: as §1

full-length hSIRT1 E230A = target: T3, full-length hSIRT1 E230A (Homo sapiens, UniProt Q96EB6, E230A)
T3 construct: His6 (C); made in house
T3 sequence (Q96EB6 1-747 E230A): T1 sequence (Q96EB6 1-747 I223A) with A223I, E230A
Method: as §1

CCCC[C@H](NC(=O)[C@H](CC(C)C)NC(=O)[C@H](CCCCNC(=O)C(F)(F)F)NC(=O)[C@H](CCCCN)NC(=O)[C@H](Cc1c[nH]cn1)NC(=O)[C@H](CCCNC(=N)N)NC(C)=O)C(=O)N[C@@H](Cc1ccccc1)C(N)=O [TFA-p53 7-mer, Ac-RHK-K^TFA-L-Nle-F-NH2]
IC50 (full-length hSIRT1 I223A): 540 ± 150 nM
IC50 (full-length hSIRT1 E230K): 1600 ± 300 nM
IC50 (full-length hSIRT1 E230A): 1300 ± 400 nM
